Measured values taken from ChEMBL document CHEMBL1201862, “PubChem BioAssay data set” (2004).
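Method: 48-hour compound exposure of cells in 96-well plates, five concentrations, linear interpolation of endpoints. Abbreviation: GI50, concentration required for 50% inhibition of growth.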 The source made the active and inactive calls. Rule as the data show it: active = GI50 up to about 1.1 µM and inactive = higher.

Legend:
Assay in all cases: NCI-60 cell line screen, 48 h
M14 = system: M14
COLO 205 = system: COLO 205
SF-539 = system: SF-539
SK-MEL-2 = system: SK-MEL-2
OVCAR-3 = system: OVCAR-3
Malme-3M = system: Malme-3M
UO-31 = system: UO-31
UACC-62 = system: UACC-62
MDA-MB-435 = system: MDA-MB-435
EKVX = system: EKVX
A498 = system: A498
A549 = system: A549
NCI/ADR-RES = system: NCI/ADR-RES
DU-145 = system: DU-145
SN12C = system: SN12C
MCF7 = system: MCF7
CAKI-1 = system: CAKI-1
NCI-H460 = system: NCI-H460
K562 = system: K562
OVCAR-4 = system: OVCAR-4
UACC-257 = system: UACC-257
ACHN = system: ACHN
T47D = system: T47D
PC-3 = system: PC-3
Hs-578T = system: Hs-578T
MDA-N = system: MDA-N
NCI-H226 = system: NCI-H226
RPMI-8226 = system: RPMI-8226
HT-29 = system: HT-29
HOP-62 = system: HOP-62
LOX IMVI = system: LOX IMVI
HCT-116 = system: HCT-116
SF-295 = system: SF-295
BT-549 = system: BT-549
IGROV-1 = system: IGROV-1
OVCAR-5 = system: OVCAR-5
TK-10 = system: TK-10
MDA-MB-231 = system: MDA-MB-231
HL-60 = system: HL-60
SK-MEL-28 = system: SK-MEL-28
CCRF-CEM = system: CCRF-CEM
U-251 = system: U-251
SK-OV-3 = system: SK-OV-3
SNB-75 = system: SNB-75
786-0 = system: 786-0
SR = system: SR
NCI-H522 = system: NCI-H522
KM12 = system: KM12
SW-620 = system: SW-620
SK-MEL-5 = system: SK-MEL-5
OVCAR-8 = system: OVCAR-8
SNB-19 = system: SNB-19
MOLT-4 = system: MOLT-4
HOP-92 = system: HOP-92
NCI-H23 = system: NCI-H23
HCT-15 = system: HCT-15
HCC 2998 = system: HCC 2998
RXF 393 = system: RXF 393
SF-268 = system: SF-268

COc1ccc(S(=O)(=O)N2C(=O)CCC2C(=O)NC(N)=O)cc1 (centres undefined)
GI50 (M14): > 100 µM (inactive) | GI50 (COLO 205): > 100 µM (inactive) | GI50 (SF-539): > 100 µM (inactive) | GI50 (SK-MEL-2): > 100 µM (inactive) | GI50 (OVCAR-3): > 100 µM (inactive) | GI50 (Malme-3M): > 100 µM (inactive) | GI50 (UO-31): > 100 µM (inactive) | GI50 (UACC-62): > 100 µM (inactive) | GI50 (MDA-MB-435): > 100 µM (inactive) | GI50 (EKVX): > 100 µM (inactive) | GI50 (A498): > 100 µM (inactive) | GI50 (A549): > 100 µM (inactive) | GI50 (NCI/ADR-RES): > 100 µM (inactive) | GI50 (DU-145): > 100 µM (inactive) | GI50 (SN12C): > 100 µM (inactive) | GI50 (MCF7): > 100 µM (inactive) | GI50 (CAKI-1): > 100 µM (inactive) | GI50 (NCI-H460): > 100 µM (inactive) | GI50 (K562): > 100 µM (inactive) | GI50 (OVCAR-4): > 100 µM (inactive) | GI50 (UACC-257): > 100 µM (inactive) | GI50 (ACHN): > 100 µM (inactive) | GI50 (T47D): > 100 µM (inactive) | GI50 (PC-3): > 100 µM (inactive) | GI50 (Hs-578T): > 100 µM (inactive) | GI50 (MDA-N): > 100 µM (inactive) | GI50 (NCI-H226): > 100 µM (inactive) | GI50 (RPMI-8226): > 100 µM (inactive) | GI50 (HT-29): > 100 µM (inactive) | GI50 (HOP-62): > 100 µM (inactive) | GI50 (LOX IMVI): > 100 µM (inactive) | GI50 (HCT-116): > 100 µM (inactive) | GI50 (SF-295): > 100 µM (inactive) | GI50 (BT-549): > 100 µM (inactive) | GI50 (IGROV-1): > 100 µM (inactive) | GI50 (OVCAR-5): > 100 µM (inactive) | GI50 (TK-10): > 100 µM (inactive) | GI50 (MDA-MB-231): > 100 µM (inactive) | GI50 (HL-60): > 100 µM (inactive) | GI50 (SK-MEL-28): > 100 µM (inactive) | GI50 (CCRF-CEM): > 100 µM (inactive) | GI50 (U-251): > 100 µM (inactive) | GI50 (SK-OV-3): > 100 µM (inactive) | GI50 (SNB-75): 0.381 µM (active) | GI50 (786-0): > 100 µM (inactive) | GI50 (SR): > 100 µM (inactive) | GI50 (NCI-H522): > 100 µM (inactive) | GI50 (KM12): > 100 µM (inactive) | GI50 (SW-620): > 100 µM (inactive) | GI50 (SK-MEL-5): > 100 µM (inactive) | GI50 (OVCAR-8): > 100 µM (inactive) | GI50 (SNB-19): > 100 µM (inactive) | GI50 (MOLT-4): > 100 µM (inactive) | GI50 (HOP-92): > 100 µM (inactive) | GI50 (NCI-H23): > 100 µM (inactive) | GI50 (HCT-15): > 100 µM

CC(C(=O)O)C1Nc2ccccc2NC1=O (centres undefined)
GI50 (M14): > 100 µM (inactive) | GI50 (COLO 205): > 100 µM (inactive) | GI50 (SF-539): > 100 µM (inactive) | GI50 (SK-MEL-2): > 100 µM (inactive) | GI50 (HCC 2998): > 100 µM (inactive) | GI50 (OVCAR-3): > 100 µM (inactive) | GI50 (Malme-3M): > 100 µM (inactive) | GI50 (UO-31): > 100 µM (inactive) | GI50 (UACC-62): > 100 µM (inactive) | GI50 (MDA-MB-435): > 100 µM (inactive) | GI50 (EKVX): > 100 µM (inactive) | GI50 (A498): > 100 µM (inactive) | GI50 (A549): > 100 µM (inactive) | GI50 (NCI/ADR-RES): > 100 µM (inactive) | GI50 (DU-145): > 100 µM (inactive) | GI50 (MCF7): > 100 µM (inactive) | GI50 (CAKI-1): > 100 µM (inactive) | GI50 (NCI-H460): > 100 µM (inactive) | GI50 (K562): > 100 µM (inactive) | GI50 (OVCAR-4): > 100 µM (inactive) | GI50 (RXF 393): > 100 µM (inactive) | GI50 (UACC-257): > 100 µM (inactive) | GI50 (ACHN): > 100 µM (inactive) | GI50 (T47D): > 100 µM (inactive) | GI50 (PC-3): > 100 µM (inactive) | GI50 (Hs-578T): > 100 µM (inactive) | GI50 (MDA-N): > 100 µM (inactive) | GI50 (NCI-H226): > 100 µM (inactive) | GI50 (RPMI-8226): 37.4 µM (inactive) | GI50 (HT-29): > 100 µM (inactive) | GI50 (LOX IMVI): > 100 µM (inactive) | GI50 (HCT-116): > 100 µM (inactive) | GI50 (SF-295): > 100 µM (inactive) | GI50 (BT-549): > 100 µM (inactive) | GI50 (IGROV-1): > 100 µM (inactive) | GI50 (OVCAR-5): > 100 µM (inactive) | GI50 (SF-268): > 100 µM (inactive) | GI50 (TK-10): > 100 µM (inactive) | GI50 (MDA-MB-231): > 100 µM (inactive) | GI50 (HL-60): 23.3 µM (inactive) | GI50 (SK-MEL-28): > 100 µM (inactive) | GI50 (CCRF-CEM): 14.2 µM (inactive) | GI50 (U-251): > 100 µM (inactive) | GI50 (SK-OV-3): > 100 µM (inactive) | GI50 (SNB-75): > 100 µM (inactive) | GI50 (786-0): > 100 µM (inactive) | GI50 (SR): 65.6 µM (inactive) | GI50 (KM12): > 100 µM (inactive) | GI50 (SW-620): > 100 µM (inactive) | GI50 (SK-MEL-5): > 100 µM (inactive) | GI50 (OVCAR-8): > 100 µM (inactive) | GI50 (SNB-19): > 100 µM (inactive) | GI50 (MOLT-4): 25.2 µM (inactive) | GI50 (HOP-92): > 100 µM (inactive) | GI50 (NCI-H23): > 100 µM (inactive) | GI50 (HCT-15): > 100 µM

CCN1CCCn2c(=O)[nH]c3cc(Br)cc1c32
GI50 (M14): > 100 µM (inactive) | GI50 (COLO 205): > 100 µM (inactive) | GI50 (SF-539): 23 µM (inactive) | GI50 (SK-MEL-2): > 100 µM (inactive) | GI50 (HCC 2998): > 100 µM (inactive) | GI50 (OVCAR-3): > 100 µM (inactive) | GI50 (Malme-3M): > 100 µM (inactive) | GI50 (UO-31): > 100 µM (inactive) | GI50 (UACC-62): 69.8 µM (inactive) | GI50 (MDA-MB-435): > 100 µM (inactive) | GI50 (EKVX): 0.706 µM (active) | GI50 (A498): 15.1 µM (inactive) | GI50 (A549): > 100 µM (inactive) | GI50 (NCI/ADR-RES): > 100 µM (inactive) | GI50 (DU-145): > 100 µM (inactive) | GI50 (SN12C): > 100 µM (inactive) | GI50 (MCF7): > 100 µM (inactive) | GI50 (CAKI-1): > 100 µM (inactive) | GI50 (NCI-H460): > 100 µM (inactive) | GI50 (K562): > 100 µM (inactive) | GI50 (OVCAR-4): > 100 µM (inactive) | GI50 (RXF 393): 15.2 µM (inactive) | GI50 (UACC-257): > 100 µM (inactive) | GI50 (ACHN): > 100 µM (inactive) | GI50 (T47D): 65.5 µM (inactive) | GI50 (PC-3): > 100 µM (inactive) | GI50 (Hs-578T): 0.394 µM (active) | GI50 (MDA-N): > 100 µM (inactive) | GI50 (NCI-H226): 55.5 µM (inactive) | GI50 (RPMI-8226): > 100 µM (inactive) | GI50 (HT-29): > 100 µM (inactive) | GI50 (HOP-62): 25.5 µM (inactive) | GI50 (LOX IMVI): > 100 µM (inactive) | GI50 (HCT-116): > 100 µM (inactive) | GI50 (SF-295): 35.1 µM (inactive) | GI50 (BT-549): 14.6 µM (inactive) | GI50 (IGROV-1): > 100 µM (inactive) | GI50 (OVCAR-5): > 100 µM (inactive) | GI50 (SF-268): 24 µM (inactive) | GI50 (TK-10): 51.6 µM (inactive) | GI50 (MDA-MB-231): 38.4 µM (inactive) | GI50 (HL-60): > 100 µM (inactive) | GI50 (SK-MEL-28): > 100 µM (inactive) | GI50 (CCRF-CEM): > 100 µM (inactive) | GI50 (U-251): 41.3 µM (inactive) | GI50 (SK-OV-3): 25.2 µM (inactive) | GI50 (SNB-75): 16.7 µM (inactive) | GI50 (786-0): 65 µM (inactive) | GI50 (SR): > 100 µM (inactive) | GI50 (KM12): > 100 µM (inactive) | GI50 (SW-620): > 100 µM (inactive) | GI50 (SK-MEL-5): > 100 µM (inactive) | GI50 (OVCAR-8): 27 µM (inactive) | GI50 (SNB-19): 89.1 µM (inactive) | GI50 (MOLT-4): 60.8 µM (inactive) | GI50 (NCI-H23): > 100 µM (inactive) | GI50 (HCT-15): > 100 µM
